PubChem BioAssay AID1963844 (Molecular Pharmacology Branch, DTP, NCI, 2024)

Tested on: 422866-222-R5-J1-PDC complex spheroid viability
Assay: Anticancer human tumor 422866-222-R5-J1-PDC patient-derived pancreatic adenocarcinoma cell line growth inhibition [POLQ]
Details: for IC50: curve of first compound; for viability, T/C: stronger effect = lower value
Protocol: Multicellular complex tumor spheroid response to Polymerase (POL) inhibitors (novobiocin, ART-558, RP6685) in combination with a variety of drugs and investigational agents in selected tumor cell lines
The POL inhibitors (novobiocin, ART-558, and RP6685) were evaluated both individually and in combination with standard of care and investigational anticancer small molecules within a complex spheroid model of solid tumors. . Complex spheroids include a stromal component modeled by human endothelial cells (HUVEC) and fibroblasts modeled by human mesenchymal stem cells (MSCs). The concentration ranges selected for each drug and investigational agent were based upon clinically achievable concentrations if the clinical Cmax of the agent was known.
Compounds. The drugs and investigational agents: novobiocin (NSC847541), ART-558 (NSC835418), RP-6685 (NSC848927), peposertib (NSC802822), ceralasertib (NSC780249), elimusertib (NSC800525), camonsertib (NSC841442), AZD-1390 (NSC803789), olaparib (NSC753686), talazoparib (NSC767125), rucaparib (NSC756644), sotorasib (NSC818433), MRTX-1133 (NSC836407), SN-38 (NSC673596), topotecan (NSC609699), epotoside (NSC141540), doxorubicin (NSC123127), gemcitabine (NSC613327), 5-fluorouracil (NSC19893), paclitaxel (NSC125973), vemurafenib (NSC761431), MSA-2 (NSC828583), SN-011 (NSC837082), adavosertib (NSC754352), prexasertib (NSC758257), carboplatin (NSC241240) and oxaliplatin (NSC266046), were obtained from the National Cancer Institute (NCI) Developmental Therapeutics Program Chemical Repository (21). The FDA-approved anticancer drug set is available from the Developmental Therapeutics Program at https://dtp.cancer.gov/organization/dscb/obtaining/. […] The stock solutions were prepared in dimethyl sulfoxide (DMSO, Sigma-Aldrich, St. Louis, MO, cat. D2650), except for the platinum compounds which were prepared in saline (Quality Biological, Gaithersburg, MD, cat. 114-055-101), at 800-fold the tested concentration and stored at -70 degrees C prior to their use. All drugs and investigational agents were tested over a range starting from a high concentration at or near the clinical Cmax and decreasing in half-log increments. If the clinical Cmax for an agent had not been determined, the highest concentration tested was 10 microM, except for SN-38, which was tested at a high concentration of 1 microM.
Cell Culture. All cells were maintained in an incubator at 37 degrees C and 5% CO2 with 95% humidity. The PDC lines were cultured according to standard operating procedures established by the NCI PDMR (https://pdmr.cancer.gov). Table 3 of the manuscript, lists the cell lines along with the number of the three cell types plated to form the mct-spheroids and media for tumor cell growth. After thawing, all PDC lines, except 997537-175-T-J1-PDC and 415267-285-R-J2-PDC, were cultured in Matrigel-coated flasks prepared with a working solution of 1X Ham's F-12 nutrient mix, without supplementation (Thermo Fisher Scientific, cat. 11765054), 100 U/mL penicillin-streptomycin (Thermo Fisher Scientific, cat. 15140122), and 2.5% Matrigel (Corning Inc., Corning, NY, cat. 354248) for the first three passages. The two PDC lines 997537-175-T-J1-PDC and 415267-285-R-J2-PDC were cultured on uncoated flasks. The 857933-349-R-J2-PDC line was cultured in 6C/Colon 1B media containing advanced DMEM/F-12 (Thermo Fisher Scientific, cat. 12634028), 10 mM HEPES (Thermo Fisher Scientific, cat. 15630080), 1X GlutaMAX supplement (Thermo Fisher Scientific, cat. 35050061), 0.1 mg/mL primocin (InvivoGen, San Diego, CA, cat. ant-pm-2), 10% defined fetal bovine serum, heat inactivated (HyClone Laboratories Inc., Logan, UT, cat. SH30070.03HI), 50% L-WRN conditioned media (ATCC, cat. CRL-3276), 1.25 mM N-Acetyl-L-cysteine (Sigma-Aldrich, cat. A9165), 10 mM nicotinamide (Sigma-Aldrich, cat. N0636), 1X B-27 supplement (Thermo Fisher Scientific, cat. 17504044), 1X N-2 supplement (Thermo Fisher Scientific, cat. […]

[1] = second compound 0.0316 µM, first compound 0.0316 µM
[2] = second compound 0.0316 µM, first compound 0.1 µM
[3] = second compound 0.1 µM, first compound 0.0316 µM
[4] = second compound 0.1 µM, first compound 0.1 µM
[5] = second compound 0.316 µM, first compound 0.0316 µM
[6] = second compound 0.316 µM, first compound 0.1 µM
[7] = second compound 1 µM, first compound 0.0316 µM
[8] = second compound 1 µM, first compound 0.1 µM
[9] = second compound 3.16 µM, first compound 0.0316 µM
[10] = second compound 3.16 µM, first compound 0.1 µM
[11] = second compound 10 µM, first compound 0.0316 µM
[12] = second compound 10 µM, first compound 0.1 µM
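Note: spheroids exposed to compounds for one week before readout.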
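Throughout, for viability, T/C: percent of DMSO vehicle wells luminescence so 100% = untreated viability.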

SMILES: C#Cc1c(F)ccc2cc(O)cc(-c3ncc4c(N5CC6CCC(C5)N6)nc(OCC56CCCN5CC(F)C6)nc4c3F)c12 (centres undefined) + Cc1cccc(N(C)C(=O)C2C(O)CCN2c2nc(C)cc(C(F)(F)F)c2C#N)c1
- IC50 (second compound 0.0316 µM): 758 nM
- IC50 (second compound 0.1 µM): 1090 nM
- IC50 (second compound 0.316 µM): 762 nM
- IC50 (second compound 1 µM): 712 nM
- IC50 (second compound 3.16 µM): 480 nM
- IC50 (second compound 10 µM): 465 nM
- viability, T/C [1]: 104%
- viability, T/C [2]: 79.8%
- viability, T/C (second compound 0.0316 µM, first compound 0.316 µM): 65.2%
- viability, T/C (second compound 0.0316 µM, first compound 1 µM): 45.5%
- viability, T/C (second compound 0.0316 µM, first compound 3.16 µM): 33%
- viability, T/C (second compound 0.0316 µM, first compound 10 µM): 28.7%
- viability, T/C [3]: 92.1%
- viability, T/C [4]: 87.2%
- viability, T/C (second compound 0.1 µM, first compound 0.316 µM): 65.7%
- viability, T/C (second compound 0.1 µM, first compound 1 µM): 54.6%
- viability, T/C (second compound 0.1 µM, first compound 3.16 µM): 33.3%
- viability, T/C (second compound 0.1 µM, first compound 10 µM): 25.9%
- viability, T/C [5]: 102%
- viability, T/C [6]: 80%
- viability, T/C (second compound 0.316 µM, first compound 0.316 µM): 67.6%
- viability, T/C (second compound 0.316 µM, first compound 1 µM): 46%
- viability, T/C (second compound 0.316 µM, first compound 3.16 µM): 29.3%
- viability, T/C (second compound 0.316 µM, first compound 10 µM): 29.1%
- viability, T/C [7]: 95.8%
- viability, T/C [8]: 96.9%
- viability, T/C (second compound 1 µM, first compound 0.316 µM): 68.1%
- viability, T/C (second compound 1 µM, first compound 1 µM): 43.7%
- viability, T/C (second compound 1 µM, first compound 3.16 µM): 33.5%
- viability, T/C (second compound 1 µM, first compound 10 µM): 32%
- viability, T/C [9]: 92.8%
- viability, T/C [10]: 74.4%
- viability, T/C (second compound 3.16 µM, first compound 0.316 µM): 57%
- viability, T/C (second compound 3.16 µM, first compound 1 µM): 40.8%
- viability, T/C (second compound 3.16 µM, first compound 3.16 µM): 30.3%
- viability, T/C (second compound 3.16 µM, first compound 10 µM): 33.9%
- viability, T/C [11]: 84.3%
- viability, T/C [12]: 69.2%
- viability, T/C (second compound 10 µM, first compound 0.316 µM): 56.1%
- viability, T/C (second compound 10 µM, first compound 1 µM): 39.9%
- viability, T/C (second compound 10 µM, first compound 3.16 µM): 32.3%
- viability, T/C (second compound 10 µM, first compound 10 µM): 27.6%

SMILES: CC[C@@]1(O)C(=O)OCc2c1cc1n(c2=O)Cc2cc3c(CN(C)C)c(O)ccc3nc2-1 + Nc1ccc(C#CCN(C(=O)Cc2ncc(C(F)(F)F)cc2C(F)(F)F)c2ccc(F)cc2)nn1
- IC50 (second compound 0.0316 µM): 26.3 nM
- IC50 (second compound 0.1 µM): 18.4 nM
- IC50 (second compound 0.316 µM): 19.5 nM
- IC50 (second compound 1 µM): 10.7 nM
- IC50 (second compound 3.16 µM): 19.7 nM
- IC50 (second compound 10 µM): 26.6 nM
- viability, T/C (second compound 0.0316 µM, first compound 0.000316 µM): 102%
- viability, T/C (second compound 0.0316 µM, first compound 0.001 µM): 109%
- viability, T/C (second compound 0.0316 µM, first compound 0.00316 µM): 93.3%
- viability, T/C (second compound 0.0316 µM, first compound 0.01 µM): 76%
- viability, T/C [1]: 44%
- viability, T/C [2]: 34.6%
- viability, T/C (second compound 0.1 µM, first compound 0.000316 µM): 99.1%
- viability, T/C (second compound 0.1 µM, first compound 0.001 µM): 87.2%
- viability, T/C (second compound 0.1 µM, first compound 0.00316 µM): 89.6%
- viability, T/C (second compound 0.1 µM, first compound 0.01 µM): 63.9%
- viability, T/C [3]: 37.4%
- viability, T/C [4]: 33.6%
- viability, T/C (second compound 0.316 µM, first compound 0.000316 µM): 85.6%
- viability, T/C (second compound 0.316 µM, first compound 0.001 µM): 105%
- viability, T/C (second compound 0.316 µM, first compound 0.00316 µM): 87%
- viability, T/C (second compound 0.316 µM, first compound 0.01 µM): 63.8%
- viability, T/C [5]: 40.8%
- viability, T/C [6]: 34.8%
- viability, T/C (second compound 1 µM, first compound 0.000316 µM): 105%
- viability, T/C (second compound 1 µM, first compound 0.001 µM): 108%
- viability, T/C (second compound 1 µM, first compound 0.00316 µM): 80.5%
- viability, T/C (second compound 1 µM, first compound 0.01 µM): 53.6%
- viability, T/C [7]: 33.3%
- viability, T/C [8]: 35.7%
- viability, T/C (second compound 3.16 µM, first compound 0.000316 µM): 89.2%
- viability, T/C (second compound 3.16 µM, first compound 0.001 µM): 100%
- viability, T/C (second compound 3.16 µM, first compound 0.00316 µM): 92.9%
- viability, T/C (second compound 3.16 µM, first compound 0.01 µM): 68.1%
- viability, T/C [9]: 36.9%
- viability, T/C [10]: 37%
- viability, T/C (second compound 10 µM, first compound 0.000316 µM): 114%
- viability, T/C (second compound 10 µM, first compound 0.001 µM): 99.4%
- viability, T/C (second compound 10 µM, first compound 0.00316 µM): 100%
- viability, T/C (second compound 10 µM, first compound 0.01 µM): 75.8%
- viability, T/C [11]: 44.5%
- viability, T/C [12]: 31.5%
